The values below come from ChEMBL document CHEMBL5291721, “A preclinical secondary pharmacology resource illuminates target-adverse drug reaction associations of marketed drugs” (Nat Commun, 2023).

Where only a bound is given, the exact number is not on record here.

For one assay, the target named is Bile salt export pump (Homo sapiens, UniProt O95342). The format is functional.
Assay [1] addresses T1, Cholecystokinin receptor type A (Homo sapiens, UniProt P32238).
T1 sequence (P32238 whole entry): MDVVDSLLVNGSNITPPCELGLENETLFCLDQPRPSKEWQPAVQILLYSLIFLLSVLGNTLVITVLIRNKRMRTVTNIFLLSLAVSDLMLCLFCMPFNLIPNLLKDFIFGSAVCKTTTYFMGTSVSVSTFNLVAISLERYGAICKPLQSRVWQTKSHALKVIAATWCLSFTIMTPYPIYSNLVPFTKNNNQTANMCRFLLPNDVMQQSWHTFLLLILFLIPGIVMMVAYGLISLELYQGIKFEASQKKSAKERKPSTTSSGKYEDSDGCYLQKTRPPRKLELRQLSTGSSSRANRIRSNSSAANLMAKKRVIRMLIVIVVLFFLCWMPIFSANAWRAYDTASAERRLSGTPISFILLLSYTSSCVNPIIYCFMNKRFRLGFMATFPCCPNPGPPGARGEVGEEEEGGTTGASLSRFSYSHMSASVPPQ

Assay [2] deals with Sodium-dependent dopamine transporter (Homo sapiens, UniProt Q01959).
Sodium-dependent dopamine transporter, sequence (Q01959 whole entry): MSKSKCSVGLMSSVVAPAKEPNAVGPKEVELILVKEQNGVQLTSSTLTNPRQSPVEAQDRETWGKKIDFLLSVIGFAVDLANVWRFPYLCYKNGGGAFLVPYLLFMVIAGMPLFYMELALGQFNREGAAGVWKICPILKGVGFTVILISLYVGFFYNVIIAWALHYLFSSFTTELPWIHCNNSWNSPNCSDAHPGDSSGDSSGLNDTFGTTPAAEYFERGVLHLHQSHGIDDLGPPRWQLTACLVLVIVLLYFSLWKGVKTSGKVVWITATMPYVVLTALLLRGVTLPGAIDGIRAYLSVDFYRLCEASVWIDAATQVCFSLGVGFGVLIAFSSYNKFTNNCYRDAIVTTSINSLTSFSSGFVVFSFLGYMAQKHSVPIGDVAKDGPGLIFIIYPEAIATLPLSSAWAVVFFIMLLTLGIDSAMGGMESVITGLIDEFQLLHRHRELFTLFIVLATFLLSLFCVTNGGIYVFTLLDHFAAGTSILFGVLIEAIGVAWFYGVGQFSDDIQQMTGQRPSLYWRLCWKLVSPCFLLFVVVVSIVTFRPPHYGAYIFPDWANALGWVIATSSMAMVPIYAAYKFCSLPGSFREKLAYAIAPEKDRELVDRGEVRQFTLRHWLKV
Assay [3] addresses T2, Alpha-2C adrenergic receptor (Homo sapiens, UniProt P18825).
T2 sequence (P18825 whole entry): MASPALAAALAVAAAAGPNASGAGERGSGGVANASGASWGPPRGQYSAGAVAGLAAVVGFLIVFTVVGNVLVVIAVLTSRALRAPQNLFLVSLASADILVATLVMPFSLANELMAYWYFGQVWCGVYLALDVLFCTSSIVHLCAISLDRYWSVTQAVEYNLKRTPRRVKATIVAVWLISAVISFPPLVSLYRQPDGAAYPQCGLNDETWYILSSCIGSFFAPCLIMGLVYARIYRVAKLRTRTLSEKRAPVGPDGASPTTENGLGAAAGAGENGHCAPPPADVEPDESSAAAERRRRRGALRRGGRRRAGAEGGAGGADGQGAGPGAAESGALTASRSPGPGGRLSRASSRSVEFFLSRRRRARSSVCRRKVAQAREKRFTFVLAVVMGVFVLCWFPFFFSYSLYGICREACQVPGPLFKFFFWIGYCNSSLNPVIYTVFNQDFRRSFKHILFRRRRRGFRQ
The format is functional.

The target of assay [4] is Neuronal acetylcholine receptor subunit alpha-4 (Homo sapiens, UniProt P43681).
Neuronal acetylcholine receptor subunit alpha-4, sequence (P43681 whole entry): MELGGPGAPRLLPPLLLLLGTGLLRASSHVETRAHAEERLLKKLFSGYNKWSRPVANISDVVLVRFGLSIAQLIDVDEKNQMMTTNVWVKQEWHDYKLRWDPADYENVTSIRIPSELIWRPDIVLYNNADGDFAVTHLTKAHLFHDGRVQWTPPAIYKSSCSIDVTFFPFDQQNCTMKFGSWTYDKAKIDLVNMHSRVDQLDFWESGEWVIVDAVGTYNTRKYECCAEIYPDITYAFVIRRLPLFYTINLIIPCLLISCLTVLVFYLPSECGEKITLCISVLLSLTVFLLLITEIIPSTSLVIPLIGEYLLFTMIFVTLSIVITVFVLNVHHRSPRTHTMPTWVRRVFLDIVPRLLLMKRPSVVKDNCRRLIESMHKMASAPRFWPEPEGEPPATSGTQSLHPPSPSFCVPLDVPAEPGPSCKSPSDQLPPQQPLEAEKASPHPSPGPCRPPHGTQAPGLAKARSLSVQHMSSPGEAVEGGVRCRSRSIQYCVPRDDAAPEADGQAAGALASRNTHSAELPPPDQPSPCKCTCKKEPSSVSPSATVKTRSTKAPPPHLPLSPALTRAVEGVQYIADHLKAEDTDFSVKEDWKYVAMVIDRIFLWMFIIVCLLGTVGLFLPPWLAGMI
Assay [5] addresses T3, Amine oxidase [flavin-containing] A (Homo sapiens, UniProt P21397).
T3 sequence (P21397 whole entry): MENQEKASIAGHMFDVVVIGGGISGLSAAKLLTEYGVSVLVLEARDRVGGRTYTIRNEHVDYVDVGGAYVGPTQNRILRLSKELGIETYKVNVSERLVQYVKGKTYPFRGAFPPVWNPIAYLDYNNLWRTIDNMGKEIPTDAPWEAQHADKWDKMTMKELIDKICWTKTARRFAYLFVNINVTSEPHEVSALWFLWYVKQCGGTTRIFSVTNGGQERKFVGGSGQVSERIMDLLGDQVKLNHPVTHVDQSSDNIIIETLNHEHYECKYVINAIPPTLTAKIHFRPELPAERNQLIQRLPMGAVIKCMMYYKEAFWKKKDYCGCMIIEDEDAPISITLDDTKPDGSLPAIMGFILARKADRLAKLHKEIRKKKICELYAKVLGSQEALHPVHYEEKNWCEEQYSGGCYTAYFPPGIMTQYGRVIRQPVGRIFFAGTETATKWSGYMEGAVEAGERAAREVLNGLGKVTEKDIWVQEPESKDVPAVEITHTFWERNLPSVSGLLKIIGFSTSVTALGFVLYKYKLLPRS
The format is functional.

The target of assay [6] is T4, 5-hydroxytryptamine receptor 2C (Homo sapiens, UniProt P28335).
T4 sequence (P28335 whole entry): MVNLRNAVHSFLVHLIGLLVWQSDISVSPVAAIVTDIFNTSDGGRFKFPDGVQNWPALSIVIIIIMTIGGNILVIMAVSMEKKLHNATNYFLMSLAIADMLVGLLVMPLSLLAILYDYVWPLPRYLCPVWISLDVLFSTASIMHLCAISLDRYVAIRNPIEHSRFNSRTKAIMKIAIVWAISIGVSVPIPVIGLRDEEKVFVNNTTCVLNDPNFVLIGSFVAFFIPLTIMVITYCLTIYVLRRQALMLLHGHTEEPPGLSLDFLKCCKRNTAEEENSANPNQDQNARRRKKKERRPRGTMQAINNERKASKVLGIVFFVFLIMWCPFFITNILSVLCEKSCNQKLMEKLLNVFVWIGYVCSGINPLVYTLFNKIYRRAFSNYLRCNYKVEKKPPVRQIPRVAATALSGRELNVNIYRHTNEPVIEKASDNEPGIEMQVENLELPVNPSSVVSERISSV

The target of the next assay is T5, Adenosine receptor A3 (Homo sapiens, UniProt P0DMS8).
T5 sequence (P0DMS8 whole entry): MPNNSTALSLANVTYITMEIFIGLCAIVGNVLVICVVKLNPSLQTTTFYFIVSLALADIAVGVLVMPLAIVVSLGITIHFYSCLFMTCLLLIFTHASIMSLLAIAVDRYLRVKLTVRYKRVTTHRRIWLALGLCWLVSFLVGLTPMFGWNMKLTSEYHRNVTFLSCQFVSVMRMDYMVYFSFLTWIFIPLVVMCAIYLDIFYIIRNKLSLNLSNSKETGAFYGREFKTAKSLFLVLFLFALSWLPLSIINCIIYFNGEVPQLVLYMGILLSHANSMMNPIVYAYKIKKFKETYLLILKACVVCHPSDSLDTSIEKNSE

In assay [7] the target is Beta-1 adrenergic receptor (Homo sapiens, UniProt P08588). In kind it is functional.
Beta-1 adrenergic receptor, sequence (P08588 whole entry): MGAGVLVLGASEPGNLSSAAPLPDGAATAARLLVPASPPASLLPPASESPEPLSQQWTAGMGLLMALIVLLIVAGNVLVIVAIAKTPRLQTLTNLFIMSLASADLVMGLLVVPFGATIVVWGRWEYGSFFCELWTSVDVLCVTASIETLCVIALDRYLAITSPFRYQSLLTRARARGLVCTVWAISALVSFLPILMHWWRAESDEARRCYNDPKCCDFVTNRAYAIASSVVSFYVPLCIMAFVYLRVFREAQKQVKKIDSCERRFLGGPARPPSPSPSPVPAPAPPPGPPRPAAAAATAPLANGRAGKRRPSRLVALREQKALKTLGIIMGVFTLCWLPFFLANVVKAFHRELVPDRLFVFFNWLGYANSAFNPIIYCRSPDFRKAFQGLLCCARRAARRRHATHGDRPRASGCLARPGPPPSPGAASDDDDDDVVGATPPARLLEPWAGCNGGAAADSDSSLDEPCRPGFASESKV
Assay [8] has as its target 5-hydroxytryptamine receptor 2B (Homo sapiens, UniProt P41595). The format is functional, cell-based.
Another assay addresses Vasopressin V1a receptor (Homo sapiens, UniProt P37288).
Note: assay procedure not described here.

Bile salt export pump, sequence (O95342 whole entry): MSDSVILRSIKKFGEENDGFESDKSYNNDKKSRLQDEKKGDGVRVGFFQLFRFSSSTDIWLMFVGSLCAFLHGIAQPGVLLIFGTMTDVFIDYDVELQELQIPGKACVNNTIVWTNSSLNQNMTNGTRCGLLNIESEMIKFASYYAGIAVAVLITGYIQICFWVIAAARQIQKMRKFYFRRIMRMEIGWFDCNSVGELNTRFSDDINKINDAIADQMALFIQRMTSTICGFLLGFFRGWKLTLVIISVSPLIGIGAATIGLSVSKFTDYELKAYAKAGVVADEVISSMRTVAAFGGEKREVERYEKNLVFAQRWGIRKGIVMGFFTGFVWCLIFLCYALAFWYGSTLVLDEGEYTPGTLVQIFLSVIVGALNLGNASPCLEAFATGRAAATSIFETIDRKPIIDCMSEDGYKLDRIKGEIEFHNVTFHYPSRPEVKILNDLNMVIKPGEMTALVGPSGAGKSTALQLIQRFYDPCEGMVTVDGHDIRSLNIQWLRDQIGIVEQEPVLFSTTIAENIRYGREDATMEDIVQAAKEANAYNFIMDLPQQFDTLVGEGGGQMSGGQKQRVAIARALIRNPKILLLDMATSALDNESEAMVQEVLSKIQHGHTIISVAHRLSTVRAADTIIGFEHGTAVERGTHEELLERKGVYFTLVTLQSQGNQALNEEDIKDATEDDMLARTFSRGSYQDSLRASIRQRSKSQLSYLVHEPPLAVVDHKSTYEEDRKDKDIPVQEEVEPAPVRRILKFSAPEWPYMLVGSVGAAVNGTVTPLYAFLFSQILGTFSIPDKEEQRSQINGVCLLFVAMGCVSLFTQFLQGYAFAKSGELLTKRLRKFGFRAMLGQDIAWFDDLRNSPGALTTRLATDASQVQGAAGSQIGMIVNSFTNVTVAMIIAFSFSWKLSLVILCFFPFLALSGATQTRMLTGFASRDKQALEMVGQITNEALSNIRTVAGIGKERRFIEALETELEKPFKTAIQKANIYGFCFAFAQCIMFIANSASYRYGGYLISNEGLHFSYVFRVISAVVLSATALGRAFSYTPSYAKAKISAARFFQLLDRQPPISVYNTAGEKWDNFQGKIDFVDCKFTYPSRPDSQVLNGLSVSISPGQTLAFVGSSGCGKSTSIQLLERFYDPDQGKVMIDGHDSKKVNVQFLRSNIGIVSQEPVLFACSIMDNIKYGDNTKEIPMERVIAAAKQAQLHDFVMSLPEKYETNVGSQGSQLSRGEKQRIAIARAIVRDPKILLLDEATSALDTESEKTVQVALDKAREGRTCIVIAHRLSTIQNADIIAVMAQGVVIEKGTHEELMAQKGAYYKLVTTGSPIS
Vasopressin V1a receptor, sequence (P37288 whole entry): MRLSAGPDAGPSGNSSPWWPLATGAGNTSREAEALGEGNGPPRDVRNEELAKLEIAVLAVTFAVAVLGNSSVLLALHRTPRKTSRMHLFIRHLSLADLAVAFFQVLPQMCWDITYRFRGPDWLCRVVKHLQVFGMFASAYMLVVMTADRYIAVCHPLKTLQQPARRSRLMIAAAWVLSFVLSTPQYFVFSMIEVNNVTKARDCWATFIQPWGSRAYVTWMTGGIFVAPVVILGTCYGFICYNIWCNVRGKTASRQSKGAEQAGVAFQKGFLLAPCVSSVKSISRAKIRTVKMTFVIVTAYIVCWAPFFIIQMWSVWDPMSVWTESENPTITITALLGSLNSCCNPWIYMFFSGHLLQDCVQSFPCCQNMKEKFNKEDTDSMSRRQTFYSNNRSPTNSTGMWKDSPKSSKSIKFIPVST
5-hydroxytryptamine receptor 2B, sequence (P41595 whole entry): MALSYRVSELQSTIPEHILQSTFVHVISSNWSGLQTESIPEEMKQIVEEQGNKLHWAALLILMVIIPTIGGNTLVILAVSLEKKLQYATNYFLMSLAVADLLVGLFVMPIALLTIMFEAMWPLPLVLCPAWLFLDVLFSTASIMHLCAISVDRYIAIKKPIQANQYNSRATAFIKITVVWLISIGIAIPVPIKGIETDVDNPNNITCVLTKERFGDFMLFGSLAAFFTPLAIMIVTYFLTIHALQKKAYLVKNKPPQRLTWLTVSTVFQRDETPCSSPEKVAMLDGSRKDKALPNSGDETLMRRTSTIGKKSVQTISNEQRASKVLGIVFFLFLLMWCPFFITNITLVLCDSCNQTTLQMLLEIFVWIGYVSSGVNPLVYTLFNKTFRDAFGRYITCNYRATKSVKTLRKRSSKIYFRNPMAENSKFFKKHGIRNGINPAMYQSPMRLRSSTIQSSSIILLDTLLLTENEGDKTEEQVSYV

As for `CCCSc1ccc2nc(NC(=O)OC)[nH]c2c1` [ALBENDAZOLE], the AC50 is over 300 µM at Bile salt export pump; over 10 µM in [1]; over 30 µM in [2]; over 10 µM in [3]; over 10 µM in [4]; over 10 µM in assay [5]. Besides, the half-maximal activity concentration (AC50) is over 30 µM in assay [6], over 30 µM at Adenosine receptor A3, over 10 µM in assay [7] and over 10 µM in assay [8].
For the compound `C=CCc1ccccc1OCC(O)CNC(C)C` (stereo unspecified) [ALPRENOLOL], the AC50 is over 30 µM in assay [1]; over 30 µM in assay [2]; 14.4 µM in assay [3]; over 30 µM in assay [4]; over 30 µM in assay [5]; over 30 µM at Vasopressin V1a receptor. In addition, the concentration at half-maximal activity (AC50) (in [6]; at Adenosine receptor A3; in [8]) was over 30 µM each time.
Take `COC(c1ccccc1)(c1ccccc1)[C@H](Oc1nc(C)cc(C)n1)C(=O)O` [AMBRISENTAN]: on Bile salt export pump, the AC50 came to 200 µM.
As to `CCc1oc2ccccc2c1C(=O)c1cc(I)c(O)c(I)c1` [BENZIODARONE], the concentration at half-maximal activity (AC50) on Bile salt export pump was found to be 6.3 µM.
With `CC(C)C[C@H]1C(=O)N2CCC[C@H]2[C@]2(O)O[C@](NC(=O)[C@@H]3C=C4c5cccc6[nH]c(Br)c(c56)C[C@H]4N(C)C3)(C(C)C)C(=O)N12` [BROMOCRIPTINE], the AC50 at Bile salt export pump is 1.6 µM; in [1], over 30 µM; in assay [2], over 30 µM; in [4] it was over 30 µM; in assay [5] it was over 30 µM; on Vasopressin V1a receptor, over 30 µM. Also, the concentration at half-maximal activity (AC50) in assay [6] is 12 µM; on Adenosine receptor A3 it was 6.81 µM; in [7] it was 9.23 µM; in assay [8] it was 25 µM.
As for `C[N+](C)(C)CCO` [CHOLINE], at Bile salt export pump, the AC50 was over 300 µM.
As to `CN(C)/N=N/c1[nH]cnc1C(N)=O` [DACARBAZINE], the half-maximal activity concentration (AC50) is over 300 µM at Bile salt export pump; over 10 µM in assay [1]; over 10 µM in [2]; over 10 µM in [3]; over 10 µM in [4]; over 10 µM in assay [5]. Further, the concentration at half-maximal activity (AC50) is over 30 µM in assay [6], over 10 µM at Adenosine receptor A3, over 10 µM in assay [7] and over 10 µM in assay [8].
Take `CN(C)CC(c1ccc(O)cc1)C1(O)CCCCC1` (stereo unspecified) [DESVENLAFAXINE]: at Bile salt export pump, the AC50 was over 300 µM.
Turning to `O=C(Cc1ccc(-c2ccccc2)cc1)Nc1ccccn1` [DIFENPIRAMIDE], the AC50 in [3], in assay [5], in assay [6] and in [8] was over 30 µM each time.
Consider `O=C(O)c1cc(O)ccc1O` [GENTISIC ACID], for which, on Bile salt export pump, the AC50 was over 300 µM.
For the compound `CCC1=C(C)CN(C(=O)NCCc2ccc(S(=O)(=O)NC(=O)N[C@H]3CC[C@H](C)CC3)cc2)C1=O` [GLIMEPIRIDE], the AC50 on Bile salt export pump is 14 µM.
For `C[N+]1(C)CCC(OC(=O)C(O)(c2ccccc2)C2CCCC2)C1` (stereo unspecified) [GLYCOPYRRONIUM BROMIDE], the results for the AC50 (at Bile salt export pump; in assay [1]; at Vasopressin V1a receptor) were over 300 µM, over 30 µM and over 30 µM, respectively.
With `O=P1(NCCCl)OCCCN1CCCl` (stereo unspecified) [IFOSFAMIDE], the half-maximal activity concentration (AC50) was over 300 µM at Bile salt export pump; over 30 µM in assay [1]; over 30 µM in [2]; over 30 µM in assay [3]; over 30 µM in [4]; over 30 µM in [5]. Further, the concentration at half-maximal activity (AC50) (in assay [6]; on Adenosine receptor A3; in [7]; in [8]) was over 30 µM in each case.
`CC(C)Nc1ncccn1` [ISAXONINE]: the AC50 on Bile salt export pump is over 300 µM.
In the case of `C[C@H]1CNCCc2ccc(Cl)cc21` [LORCASERIN], the AC50 at Bile salt export pump is over 300 µM; in assay [1], over 30 µM; in assay [2], over 30 µM; in [3] it was 3.6 µM; in [4] it was over 30 µM; in assay [5] it was over 30 µM. In addition, the AC50 on Vasopressin V1a receptor was over 30 µM; on Adenosine receptor A3, over 30 µM; in assay [7] it was 8.3 µM.
Turning to `OCCN1C[C@H](O)[C@@H](O)[C@H](O)[C@H]1CO` [MIGLITOL], the concentration at half-maximal activity (AC50) at Bile salt export pump is over 300 µM.
Take `Clc1ccc(C(c2ccccc2Cl)C(Cl)Cl)cc1` (stereo unspecified) [MITOTANE]: the concentration at half-maximal activity (AC50) was 41 µM on Bile salt export pump; over 10 µM in [1]; over 10 µM in assay [2]; over 10 µM in assay [3]; over 10 µM in assay [4]; over 10 µM in assay [5]. The AC50 is over 30 µM in [6], over 10 µM on Adenosine receptor A3, over 10 µM in [7] and over 10 µM in assay [8].
For the compound `O=C(CCNNC(=O)c1ccncc1)NCc1ccccc1` [NIALAMIDE], on Bile salt export pump, the half-maximal activity concentration (AC50) is over 300 µM.
In the case of `CC(C)(C)NC[C@H](O)COc1ccccc1C1CCCC1` [PENBUTOLOL], the AC50 on Bile salt export pump is over 300 µM.
The same measure, in the same setting: to `CC(C)(S)[C@@H](N)C(=O)O` [PENICILLAMINE] belongs over 300 µM.
In the case of `c1cnc(N2CCN(Cc3ccc4c(c3)OCO4)CC2)nc1` [PIRIBEDIL], the concentration at half-maximal activity (AC50) at Bile salt export pump was 130 µM; in assay [1], over 30 µM; in assay [2], over 30 µM; in assay [3], 0.96 µM; in assay [4], over 30 µM; in [5] it was over 30 µM. For the same compound, the AC50 (at Vasopressin V1a receptor; in [6]; on Adenosine receptor A3; in [8]) was over 30 µM each time.
On to `COc1cc(NC(C)CCCN)c2ncccc2c1` (stereo unspecified) [PRIMAQUINE], for which the results for the AC50 (on Bile salt export pump; in assay [1]) were 61 µM and over 30 µM, respectively.
On to `C=C[C@H]1C[N@@]2CC[C@H]1C[C@H]2[C@H](O)c1ccnc2ccc(OC)cc12` [QUININE], for which the AC50 at Bile salt export pump is over 300 µM.
As for `CS(=O)(=O)c1ccc(C2=C(c3ccccc3)C(=O)OC2)cc1` [ROFECOXIB], the AC50 is over 30 µM in [1]; over 10 µM in [2]; over 10 µM in assay [3]; over 10 µM in assay [4]; over 10 µM in assay [5]; over 10 µM at Vasopressin V1a receptor. The concentration at half-maximal activity (AC50) in assay [6] is over 30 µM; on Adenosine receptor A3, over 30 µM; in [7], over 10 µM; in [8], over 30 µM.
For the compound `CCOC(=O)[C@H](CCc1ccccc1)N[C@@H](C)C(=O)N1[C@H](C(=O)O)C[C@H]2CCCC[C@@H]21` [TRANDOLAPRIL], the half-maximal activity concentration (AC50) on Bile salt export pump was 220 µM.
The same measure, in the same setting: to `CCCCCCOc1nsnc1C1=CCCN(C)C1` [XANOMELINE] belongs over 300 µM.

What is called AC50 is the midpoint of the concentration-response curve, whichever way the signal moves.
